Laboratory results as given in patent publication US4923963A, “Bradykinin antagonist peptides” (Nova Technology Limited Partnership, priority 1987, dated 1990).
Where two headings read alike, the source gives them in different places. Square brackets hold non-standard residues; d marks the D form. Peptide text beside a SMILES is read from it. d2Nal = N[C@H](Cc1ccc2ccccc2c1)C(=O)O; Hyp = O=C(O)[C@@H]1C[C@@H](O)CN1; 2Thi = N[C@@H](Cc1cccs1)C(=O)O; d2Thi = N[C@H](Cc1cccs1)C(=O)O

Experiments:
rat blood pressure = experiment: effects on blood pressure in the anesthetized rat (RBP), intraaortic and intravenous bolus; assay type: in vivo; parameters: RBP-IA: activity class / RBP-IV: activity class: scale not given here; details: rat blood pressure; for RBP-IA: activity class: intraaortic bolus; for RBP-IV: activity class: intravenous bolus
Description: The in vivo effects of bradykinin antagonists on blood pressure in the anesthetized rat are determined according to the assay described by Roblero, Ryan and Stewart (Res. Commun. Pathol. Pharmacol. 6:207, 1973). The antagonists also produce inhibition of the bradykinin response when injected as a bolus admixture of bradykinin plus antagonist by either the ia or iv route of administration.

isolated rat uterus = assay type: cell-based; details: for pA2 /RUT: activity class: not quantitated
Description: (§1) The bradykinin antagonists were assayed on isolated rat uterus in natural or induced estrus and on guinea pig ileum, according to the commonly accepted assay methods for bradykinin and related kinins as described by Trautschold (Handbook of Expt. Pharmacol. Vol 25, Springer Verlag, pp. 53-55, 1970) for inhibition of the myotropic activity of bradykinin. The inhibition potencies, as determined according to the commonly accepted manner described by Schild for antagonists of biologically active compounds (Br. J. Pharmacol. 2:189, 1947), and expressed as pA2 values are determined on isolated rat uterus (RUT) and isolated guinea pig ileum (GPI). In the assays, a dose-response curve is determined for the reference substance bradykinin. The dose of bradykinin which produced a half maximal contraction of tissue is the ED50 dose. An amount of bradykinin equivalent to twice the ED50 dose is administered to the tissue 30 seconds after the start of incubation of the tissue with a dose of antagonist. Doses of antagonist are increased in this protocol until pre-incubation with a dose of antagonist reduces the contraction in response to the double ED50 dose of bradykinin to response of a single ED50 dose of bradykinin. The pA2 value represents the negative logarithm of the molar concentration of antagonist necessary to reduce the response of a double ED50 dose of bradykinin to that of an ED50 dose. One unit of pA2 value represents an order of magnitude change in potency. For comparison, the negative log of the dose of BK, the dose which causes half maximal contraction of the tissues, is commonly known as the pD2 value. The pD2 value for bradykinin is 7.9 on the rat uterus and 7.4 on the guinea pig ileum.

[1] = test system: isolated guinea pig ileum; assay type: cell-based; parameters: pA2 /GPI: activity class: scale not given here; details: isolated guinea pig ileum; for pA2 /GPI: activity class: not quantitated; for pA2 /GPI (antagonist potency): number of tissues in parentheses
Description: as §1

| Compound | pA2 /RUT: activity class (isolated rat uterus; isolated rat uterus) | pA2 /GPI: activity class [1] | also measured |
| --- | --- | --- | --- |
| CC(C)[C@@H](N)C(=O)N1CCC[C@H]1C(=O)N1C[C@H](O)C[C@H]1C(=O)NCC(=O)N[C@@H](Cc1ccccc1)C(=O)N[C@@H](CO)C(=O)N[C@H](Cc1ccccc1)C(=O)N[C@@H](Cc1ccccc1)C(=O)N[C@@H](CCCNC(=N)N)C(=O)O [Example 15, DVal-Pro-Hyp-Gly-Phe-Ser-DPhe-Phe-Arg] (H-[dV]P[Hyp]GFS[dF]FR-OH) | 0 | 0 | RBP-IA: activity class (rat blood pressure): 0; RBP-IV: activity class (rat blood pressure): 0 |
| N=C(N)NCCC[C@H](NC(=O)[C@H](Cc1cccs1)NC(=O)[C@@H](Cc1ccccc1)NC(=O)[C@H](CO)NC(=O)[C@H](Cc1cccs1)NC(=O)CNC(=O)[C@@H]1C[C@@H](O)CN1C(=O)[C@@H]1C[C@@H](O)CN1C(=O)[C@H](N)Cc1ccc2ccccc2c1)C(=O)O [Example 26, DNal-Hyp-Hyp-Gly-Thi-Ser-DPhe-Thi-Arg] (H-[d2Nal][Hyp][Hyp]G[2Thi]S[dF][2Thi]R-OH) | 0 | 0 |  |
| N=C(N)NCCC[C@@H](N)C(=O)N[C@H](Cc1ccc2ccccc2c1)C(=O)N1C[C@H](O)C[C@H]1C(=O)N1C[C@H](O)C[C@H]1C(=O)NCC(=O)N[C@@H](Cc1cccs1)C(=O)N[C@@H](CO)C(=O)N[C@H](Cc1ccccc1)C(=O)N[C@@H](Cc1cccs1)C(=O)N[C@@H](CCCNC(=N)N)C(=O)O [Example 27, DArg-DNal-Hyp-Hyp-Gly-Thi-Ser-DPhe-Thi-Arg] (H-[dR][d2Nal][Hyp][Hyp]G[2Thi]S[dF][2Thi]R-OH) |  | 0 | pA2 /RUT (antagonist potency) (isolated rat uterus): 5.3 |
| N=C(N)NCCC[C@H](NC(=O)[C@H](Cc1cccs1)NC(=O)[C@@H](Cc1ccccc1)NC(=O)[C@H](CO)NC(=O)[C@H](Cc1cccs1)NC(=O)CNC(=O)[C@@H]1C[C@@H](O)CN1C(=O)[C@@H]1C[C@@H](O)CN1C(=O)[C@@H](Cc1ccc2ccccc2c1)NC(=O)[C@H](CCCCN)NC(=O)[C@@H](N)CCCCN)C(=O)O [Example 28, Lys-Lys-DNal-Hyp-Hyp-Gly-Thi-Ser-DPhe-Thi-Arg] (H-KK[d2Nal][Hyp][Hyp]G[2Thi]S[dF][2Thi]R-OH) | 0 | 0 |  |
| N=C(N)NCCC[C@H](NC(=O)[C@H](Cc1ccccc1)NC(=O)[C@@H](Cc1ccccc1)NC(=O)[C@H](CO)NC(=O)[C@H](Cc1ccccc1)NC(=O)CNC(=O)[C@@H]1CCCN1C(=O)[C@@H]1CCCN1C(=O)[C@H](N)Cc1ccc2ccccc2c1)C(=O)O [Example 29, DNal-Pro-Pro-Gly-Phe-Ser-DPhe-Phe-Arg] (H-[d2Nal]PPGFS[dF]FR-OH) |  | 0 | pA2 /RUT (antagonist potency) (isolated rat uterus): 5.4 |
| N=C(N)NCCC[C@H](NC(=O)[C@H](Cc1ccccc1)NC(=O)[C@@H](Cc1ccccc1)NC(=O)[C@H](CO)NC(=O)[C@H](Cc1ccccc1)NC(=O)CNC(=O)[C@@H]1C[C@@H](O)CN1C(=O)[C@@H]1CCCN1C(=O)[C@H](N)Cc1ccc2ccccc2c1)C(=O)O [Example 30, DNa]-Pro-Hyp-Gly-Phe-Ser-DPhe-Phe-Arg] (H-[d2Nal]P[Hyp]GFS[dF]FR-OH) | 0 |  | RBP-IA: activity class (rat blood pressure): 0; RBP-IV: activity class (rat blood pressure): 0; pA2 /GPI: agonist potency as percent of BK potency [1]: 0.1% |
| N=C(N)NCCC[C@@H](N)C(=O)N[C@H](Cc1ccc2ccccc2c1)C(=O)N1CCC[C@H]1C(=O)N1CCC[C@H]1C(=O)NCC(=O)N[C@@H](Cc1ccccc1)C(=O)N[C@@H](CO)C(=O)N[C@H](Cc1ccccc1)C(=O)N[C@@H](Cc1ccccc1)C(=O)N[C@@H](CCCNC(=N)N)C(=O)O [Example 31, DArg-DNal-Pro-Pro-Gly-Phe-Ser-DPhe-Phe-Arg] (H-[dR][d2Nal]PPGFS[dF]FR-OH) |  | 0 | pA2 /RUT (antagonist potency) (isolated rat uterus): 5.6 |
| N=C(N)NCCC[C@@H](N)C(=O)N[C@H](Cc1ccc2ccccc2c1)C(=O)N1CCC[C@H]1C(=O)N1C[C@H](O)C[C@H]1C(=O)NCC(=O)N[C@@H](Cc1ccccc1)C(=O)N[C@@H](CO)C(=O)N[C@H](Cc1ccccc1)C(=O)N[C@@H](Cc1ccccc1)C(=O)N[C@@H](CCCNC(=N)N)C(=O)O [Example 32, DArg-DNal-Pro-Hyp-Gly-Phe-Ser-DPhe-Phe-Arg] (H-[dR][d2Nal]P[Hyp]GFS[dF]FR-OH) |  | 0 | pA2 /RUT (antagonist potency) (isolated rat uterus): 5.9 |
| N=C(N)NCCC[C@H](NC(=O)[C@H](Cc1ccccc1)NC(=O)[C@@H](Cc1cccs1)NC(=O)[C@H](CO)NC(=O)[C@H](Cc1ccccc1)NC(=O)CNC(=O)[C@@H]1CCCN1C(=O)[C@@H]1CCCN1C(=O)[C@H](N)Cc1cccs1)C(=O)O [Example 33, DThi-Pro-Pro-Gly-Phe-Ser-DThi-Phe-Arg] (H-[d2Thi]PPGFS[d2Thi]FR-OH) | 0 | 0 | RBP-IA: activity class (rat blood pressure): 0; RBP-IV: activity class (rat blood pressure): 0 |
| N=C(N)NCCC[C@H](NC(=O)[C@H](Cc1ccccc1)NC(=O)[C@@H](Cc1cccs1)NC(=O)[C@H](CO)NC(=O)[C@H](Cc1ccccc1)NC(=O)CNC(=O)[C@@H]1CCCN1C(=O)[C@@H]1CCCN1C(=O)[C@H](N)Cc1ccc2ccccc2c1)C(=O)O [Example 37, DNal-Pro-Pro-Gly-Phe-Ser-DThi-Phe-Arg] (H-[d2Nal]PPGFS[d2Thi]FR-OH) | 0 | 0 |  |
| N=C(N)NCCC[C@H](NC(=O)[C@H](Cc1ccccc1)NC(=O)[C@@H](Cc1cccs1)NC(=O)[C@H](CO)NC(=O)[C@H](Cc1ccccc1)NC(=O)CNC(=O)[C@@H]1C[C@@H](O)CN1C(=O)[C@@H]1CCCN1C(=O)[C@H](N)Cc1ccc2ccccc2c1)C(=O)O [Example 38, DNal-Pro-Hyp-Gly-Phe-Ser-DThi-Phe-Arg] (H-[d2Nal]P[Hyp]GFS[d2Thi]FR-OH) | 0 | 0 |  |
| N=C(N)NCCC[C@@H](N)C(=O)N[C@H](Cc1ccc2ccccc2c1)C(=O)N1CCC[C@H]1C(=O)N1C[C@H](O)C[C@H]1C(=O)NCC(=O)N[C@@H](Cc1ccccc1)C(=O)N[C@@H](CO)C(=O)N[C@H](Cc1cccs1)C(=O)N[C@@H](Cc1ccccc1)C(=O)N[C@@H](CCCNC(=N)N)C(=O)O [Example 40, DArg-DNal-Pro-Hyp-Gly-Phe-Ser-DThi-Phe-Arg] (H-[dR][d2Nal]P[Hyp]GFS[d2Thi]FR-OH) |  | 0 | pA2 /RUT (antagonist potency) (isolated rat uterus): 5.6 |
| N=C(N)NCCC[C@@H](N)C(=O)N[C@@H](CCCNC(=N)N)C(=O)N1CCC[C@H]1C(=O)N1CCC[C@H]1C(=O)NCC(=O)N[C@@H](Cc1cccs1)C(=O)N[C@@H](CO)C(=O)N[C@H](Cc1ccccc1)C(=O)N[C@@H](Cc1cccs1)C(=O)N[C@H](CCCNC(=N)N)C(=O)O [Example 43, DArg-Arg-Pro-Pro-Gly-Thi-Ser-DPhe-Thi-DArg] (H-[dR]RPPG[2Thi]S[dF][2Thi][dR]-OH) | 0 | 0 |  |
| CC(=O)N[C@@H](CCCNC(=N)N)C(=O)N1CCC[C@H]1C(=O)N1CCC[C@H]1C(=O)NCC(=O)N[C@@H](Cc1cccs1)C(=O)N[C@@H](CO)C(=O)N[C@H](Cc1ccccc1)C(=O)N[C@@H](Cc1cccs1)C(=O)N[C@@H](CCCNC(=N)N)C(N)=O [Example 52, Ac-Arg-Pro-Pro-Gly-Thi-Ser-DPhe-Thi-Arg-NH2] (Ac-RPPG[2Thi]S[dF][2Thi]R-NH2) | 0 | 0 |  |
| CC(=O)N[C@@H](CCCNC(=N)N)C(=O)N1CCC[C@H]1C(=O)N1CCC[C@H]1C(=O)NCC(=O)N[C@@H](Cc1cccs1)C(=O)N[C@@H](CO)C(=O)N[C@H](Cc1ccccc1)C(=O)N[C@@H](Cc1cccs1)C(=O)N[C@H](CCCNC(=N)N)C(N)=O [Example 56, Ac-Arg-Pro-Pro-Gly-Thi-Ser-DPhe-Thi-DArg-NH2] (Ac-RPPG[2Thi]S[dF][2Thi][dR]-NH2) | 0 | 0 |  |
| CC[C@H](C)[C@H](NC(=O)[C@H](CCCNC(=N)N)NC(=O)[C@H](Cc1ccccc1)NC(=O)[C@@H](Cc1ccccc1)NC(=O)[C@H](CO)NC(=O)[C@H](Cc1ccccc1)NC(=O)CNC(=O)[C@@H]1CCCN1C(=O)[C@@H]1CCCN1C(=O)[C@H](CCCNC(=N)N)NC(=O)[C@H](N)CCCNC(=N)N)C(=O)N[C@@H](Cc1ccc(O)cc1)C(=O)O [Example 64, DArg-Arg-Pro-Pro-Gly-Phe-Ser-DPhe-Phe-Arg-Ile-Tyr] (H-[dR]RPPGFS[dF]FRIY-OH) |  |  | pA2 /RUT: agonist potency as percent of BK potency (isolated rat uterus; isolated rat uterus): 0.7%; pA2 /GPI (antagonist potency) [1]: 6.2 |
| CC[C@H](C)[C@H](NC(=O)[C@H](CCCNC(=N)N)NC(=O)[C@H](Cc1cccs1)NC(=O)[C@@H](Cc1ccccc1)NC(=O)[C@H](CO)NC(=O)[C@H](Cc1cccs1)NC(=O)CNC(=O)[C@@H]1CCCN1C(=O)[C@@H]1CCCN1C(=O)[C@H](CCCNC(=N)N)NC(=O)[C@H](N)CCCNC(=N)N)C(=O)N[C@@H](Cc1ccc(O)cc1)C(=O)O [Example 66, DArg-Arg-Pro-Pro-Gly-Thi-Ser-DPhe-Thi-Arg-Ile-Tyr] (H-[dR]RPPG[2Thi]S[dF][2Thi]RIY-OH) |  |  | pA2 /RUT: agonist potency as percent of BK potency (isolated rat uterus): 0.3%; pA2 /GPI (antagonist potency) [1]: 5.8 |
